Reference: ChEMBL document CHEMBL5380834, “Design, Synthesis, and Biological Evaluation of Androgen Receptor (AR) Antagonist-Heat Shock Protein 90 (Hsp90) Inhibitor Conjugates for Targeted Therapy of Castration-Resistant Prostate Cancer” (J Med Chem, 2023)
The source made the active and inactive calls. No cut-off for these calls is given here.

Assays:
[1] = tested on: Androgen receptor (Homo sapiens), P10275 [UNDEFINED MUTATION]; assay: Induction of AR-V7 degradation in human 22Rv1 cells at 100 nM by Western blot analysis; format: cell-based; conditions: time <= 48.0 hrs, TDE = time-dependent effect
CWR22R [2] = assay: Antitumor activity against human 22Rv1 cells xenografted in BALB/c nude mouse assessed as downregulation of AR-FL level at 2.5 mg/kg, ip administered once every 4th day for 3 weeks; format: functional, organism-based
LNCaP [3] = assay: Downregulation of AR-regulated PSA protein level in human LNCaP cells measured for 48 hrs in presence of AR agonist, R1881 in charcoal stripped serum by Western blot analysis; format: functional, cell-based; conditions: dose 300-1000 nM
[4] = target: T1, Androgen receptor (Homo sapiens) (UniProt P10275); assay: Induction of full length AR degradation in human LNCaP cells assessed as maximum degradation at 100 nM measured after 12 hrs relative to control; format: cell-based
T1 sequence (whole entry): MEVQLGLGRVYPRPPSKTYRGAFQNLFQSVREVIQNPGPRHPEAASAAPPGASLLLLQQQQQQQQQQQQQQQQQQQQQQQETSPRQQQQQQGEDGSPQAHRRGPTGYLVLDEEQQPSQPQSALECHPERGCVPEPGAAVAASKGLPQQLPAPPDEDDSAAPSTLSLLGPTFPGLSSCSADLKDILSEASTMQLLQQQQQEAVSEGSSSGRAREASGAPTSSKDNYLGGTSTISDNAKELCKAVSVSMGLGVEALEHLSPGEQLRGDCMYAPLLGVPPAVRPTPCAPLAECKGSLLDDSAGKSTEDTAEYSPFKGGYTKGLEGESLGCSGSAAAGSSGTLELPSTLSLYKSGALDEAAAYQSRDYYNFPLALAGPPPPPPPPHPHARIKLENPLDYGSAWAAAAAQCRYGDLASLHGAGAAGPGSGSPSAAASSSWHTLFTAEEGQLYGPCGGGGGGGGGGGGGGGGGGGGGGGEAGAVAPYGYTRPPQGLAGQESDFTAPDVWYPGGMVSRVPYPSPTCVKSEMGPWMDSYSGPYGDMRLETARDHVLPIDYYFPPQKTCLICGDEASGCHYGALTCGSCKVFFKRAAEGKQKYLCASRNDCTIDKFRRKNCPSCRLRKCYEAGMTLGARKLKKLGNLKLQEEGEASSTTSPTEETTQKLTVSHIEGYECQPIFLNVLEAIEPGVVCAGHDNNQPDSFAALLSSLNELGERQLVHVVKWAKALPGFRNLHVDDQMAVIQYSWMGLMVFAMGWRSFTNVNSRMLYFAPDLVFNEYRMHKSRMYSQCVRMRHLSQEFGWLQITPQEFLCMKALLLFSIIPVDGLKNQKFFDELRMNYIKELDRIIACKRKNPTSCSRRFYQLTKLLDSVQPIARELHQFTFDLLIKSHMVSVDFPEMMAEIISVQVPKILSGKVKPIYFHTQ

LNCaP [5] = assay: Induction of apoptosis in human LNCaP cells assessed as increase in PARP level at 1 uM measured after 48 hrs by Western blot analysis; format: functional, cell-based
LNCaP [6] = assay: Antitumor activity against human LNCaP cells xenografted in BALB/c nude mouse assessed as inhibition of tumor growth at 2.5 to 5 mg/kg, po administered once every 4th day for 3 weeks; format: functional, organism-based; conditions: dose 2.5-5 mg/kg
LNCaP [7] = assay: Cytotoxicity against AR-positive human LNCaP cells assessed as inhibition of cell growth incubated for 5 days in presence of AR agonist, R1881 in charcoal stripped serum by WST-1 assay; format: functional, cell-based; conditions: 120 h
[8] = Biodistribution in BALB/c mouse plasma xenografted with human 22Rv1 cells at 2.5 mg/kg, iv measured at 0.5 to 1 hrs; format: ADME, organism-based, CWR22R; conditions: in vivo, time 0.5-1 hrs
LNCaP [9] = assay: Downregulation of AR-regulated TMPRSS2 protein level in human LNCaP cells measured for 48 hrs in presence of AR agonist, R1881 in charcoal stripped serum by Western blot analysis; format: functional, cell-based; conditions: dose 300-1000 nM
[10] = Toxicity in ICR mouse assessed as animal weight loss at 30 to 50 mg/kg, iv administered every second day for 14 days; format: organism-based; conditions: in vivo, 336 h, dose 30-50 mg/kg, time 14 day
CWR22R [11] = assay: Induction of apoptosis in human 22Rv1 cells assessed as increase in PARP level at 1 uM measured after 48 hrs by Western blot analysis; format: functional, cell-based
LNCaP [12] = assay: Antitumor activity against human LNCaP cells xenografted in BALB/c nude mouse assessed as downregulation of TMPRSS2 level at 5 mg/kg, ip administered once every 4th day for 3 weeks and measured at 2 hrs post dose; format: functional, organism-based
[13] = Biodistribution in BALB/c mouse muscle tissue xenografted with human 22Rv1 cells at 2.5 mg/kg, iv measured at 0.5 to 1 hrs; format: ADME, organism-based, CWR22R; conditions: in vivo, time 0.5-1 hrs
[14] = tested on: Androgen receptor (Homo sapiens), P10275 [UNDEFINED MUTATION]; assay: Induction of AR-V7 degradation in human 22Rv1 cells measured upto 24 hrs by Western blot analysis; format: cell-based; conditions: dose 1000.0 nM
[15] = Biodistribution in BALB/c mouse heart xenografted with human 22Rv1 cells at 2.5 mg/kg, iv measured at 0.5 to 1 hrs; format: ADME, organism-based, CWR22R; conditions: in vivo, time 0.5-1 hrs
LNCaP [16] = assay: Antitumor activity against human LNCaP cells xenografted in BALB/c nude mouse assessed as downregulation of FKBP5 level at 5 mg/kg, ip administered once every 4th day for 3 weeks and measured at 2 hrs post dose; format: functional, organism-based
[17] = Toxicity in ICR mouse assessed as lung damage at 30 to 50 mg/kg, iv administered every second day for 14 days; format: organism-based; conditions: in vivo, 336 h, dose 30-50 mg/kg, time 14 day
[18] = Downregulation of AR-regulated FKBP5 protein level in human LNCaP cells at 300 nM measured for 48 hrs in presence of AR agonist, R1881 in charcoal stripped serum by Western blot analysis relative to control; format: functional
[19] = Biodistribution in BALB/c mouse spleen xenografted with human 22Rv1 cells at 2.5 mg/kg, iv measured at 0.5 to 1 hrs; format: ADME, organism-based, CWR22R; conditions: in vivo, time 0.5-1 hrs
LNCaP [20] = assay: Antitumor activity against human LNCaP cells xenografted in BALB/c nude mouse assessed as downregulation of AR-FL level at 5 mg/kg, ip administered once every 4th day for 3 weeks and measured at 2 hrs post dose; format: functional, organism-based
[21] = Biodistribution in BALB/c mouse kidney xenografted with human 22Rv1 cells at 2.5 mg/kg, iv measured at 0.5 to 1 hrs; format: ADME, organism-based, CWR22R; conditions: in vivo, time 0.5-1 hrs
[22] = Biodistribution in BALB/c mouse tumor xenografted with human 22Rv1 cells at 2.5 mg/kg, iv measured at 12 hrs; format: ADME, organism-based, Neoplasm, CWR22R; conditions: in vivo
CWR22R [23] = assay: Antitumor activity against human 22Rv1 cells xenografted in BALB/c nude mouse assessed as reduction in tumor growth at 5 mg/kg, ip administered once every 4th day for 3 weeks; format: functional, organism-based
[24] = Toxicity in ICR mouse assessed as spleen damage at 30 to 50 mg/kg, iv administered every second day for 14 days; format: organism-based; conditions: in vivo, 336 h, dose 30-50 mg/kg, time 14 day
[25] = Toxicity in BALB/c nude mouse xenografted with human LNCaP cells assessed as animal weight loss at 5 mg/kg, ip administered once every 4th day for 3 weeks; format: organism-based; conditions: in vivo, 504 h
[26] = Toxicity in ICR mouse assessed as heart damage at 30 to 50 mg/kg, iv administered every second day for 14 days; format: organism-based; conditions: in vivo, 336 h, dose 30-50 mg/kg, time 14 day

Activity [1]: Tde
Activity [4]: > 90%
Drug uptake [8]: Active
Drug uptake [13]: Active
Activity [14]: Dose-Dependent Effect
Drug uptake [15]: Active
Drug uptake [19]: Active
Drug uptake [21]: Active
Drug uptake [22]: Active
Compound: CC(C)c1cc(-c2n[nH]c(=O)n2-c2ccc(CN3CCN(CC4CCN(c5ccc(C(=O)N[C@H]6CC[C@H](Oc7ccc(C#N)c(Cl)c7)CC6)nn5)CC4)CC3)cc2)c(O)cc1O
Activity (CWR22R [2]): Active
Activity (LNCaP [3]): Dose-Dependent Effect
Activity (LNCaP [5]): Active
Activity (LNCaP [6]): Active
IC50 (LNCaP [7]): 171 nM
Activity (LNCaP [9]): Dose-Dependent Effect
Activity [10]: Non-Toxic
Activity (CWR22R [11]): Active
Activity (LNCaP [12]): Active
Activity (LNCaP [16]): Active
Activity [17]: Non-Toxic
Activity [18]: >50%
Activity (LNCaP [20]): Active
Activity (CWR22R [23]): Active
Activity [24]: Non-Toxic
Activity [25]: 10%
Activity [26]: Non-Toxic
